{
  "source": "patent US20030134413A1",
  "about": "“Cell production” (priority 2000, published 2003)",
  "molecules": {"B1": {"name": "FGF4: growth factor from the FGF family (protein, UniProt P08620 31-206, looked up)", "Fibroblast growth factor 4": "APTAPNGTLEAELERRWESLVALSLARLPVAAQPKEAAVQSGAGDYLLGIKRLRRLYCNVGIGFHLQALPDGRIGGAHADTRDSLLELSPVERGVVSIFGVASRFFVAMSSKGKLYGSPFFTDECTFKEILLPNNYNAYESYKYPGMFIALSKNGKTKKGNRVSPTMKVTHFLPRL"}},
  "format_in_all_cases": "cell-based, mouse",
  "key": {"ES cells [1]": {"tested_on": "ES cells", "experiment": "Morphology of ES cell aggregates in suspension culture", "conditions": "medium supplemented with 100 units of LIF; data not shown", "method": "(§1) All cell aggregates were formed from single cell suspensions (1×10^5 cells/ml) of ES or EPL cells cultured in bacterial petri dishes. ES cell and EPL cell embryoid bodies (EB and EPLEB respectively) were formed as described in Lake et al. (2000). EBM, cell aggregates formed and maintained in MEDII, were formed from ES cells aggregated in IC:DMEM (DMEM (Gibco BRL #12800) with 10% foetal calf serum (FCS; Commonwealth Serum Laboratories), […] gentamycin, 1 mM L-glutamine and 0.1 mM B-mercaptoethanol (B-ME)) supplemented with 50% MEDII. Aggregates were divided 1 in 2 on days 2 and 4, and medium was changed on days 2 and 4 and then daily until collection. […] The time in days from formation of aggregates was denoted by superscript with the day of formation denoted as day 0. For example, EBM 5 days after formation are represented as EBM^5.\nFor continued suspension culture of EB and EBM, aggregates on day 7 were transferred to serum free medium (50% DMEM, 50% Hams F12 (Gibco BRL # 11765) supplemented with 1× ITSS supplement (Boehringer Mannhiem) and 10 ng/ml FGF2 (Peprotech Inc.)).\nEB^4 and EBM^4 were fixed with 4% PFA for 30 minutes before embedding in paraffin wax and sectioning as described in Hogan et al., 1994. 7 μm sections were stained with haematoxylin:eosin as described by Kaufman, 1992 or with Hoescht […] (5 μg/ml) in PBS; Sigma) for 5 minutes."}, "EBM^9 explants": {"tested_on": "EBM^9 explants", "experiment": "Neural crest formation from EBM^9 explants", "method": "Sox 10 probes were transcribed from pSox10E.1 (obtained from Dr. Peter Koopman, IMB, Brisbane, Australia). Anti-sense and sense probes were transcribed from HindIII or BamHI cut pSox10E.1 with […] or T3 RNA polymerase respectively.\nEBM^9 were collected, washed in PBS, treated with 0.5 mM EGTA pH 7.5 for 3 minutes, washed in PBS and disaggregated to small clumps (20-200 cells) by trituration. Cell clumps were allowed to settle and single cells liberated during trituration were removed with the supernatant before plating onto tissue culture grade plasticware which had been coated with cellular fibronectin (1 μg/cm^2; obtained from M. D. Bettess, Department of Biochemistry, Adelaide University, Australia) and allowed to dry. Cells were cultured in Hams F12 containing 3% FCS and 10 ng/ml FGF2 and supplemented with either 0.1% 25 μM staurosporine (Sigma) in DMSO (final concentration, 25 nM) or 0.1% DMSO. Cellular aggregates were allowed to differentiate for 48 hours before fixation in 4% PFA for 30 minutes."}, "ES cells [2]": {"tested_on": "ES cells", "experiment": "Differentiation potential of seeded ES cell aggregates (neurons, beating cardiocytes)", "conditions": "10-20 ng/ml added to the medium from day 4", "method": "as §1\nFor adherent culture, aggregates were seeded onto gelatin treated tissue culture grade plasticware (Falcon) on day 7 of development in 500 μl DMEM supplemented with 10% FCS (Commonwealth serum Laboratories). […]\nEB^7 and EBM^7 were seeded as described above and assessed on days 8, 10, 12 and 14 for the presence of neurons, identified morphologically by the presence of axonal projections (and confirmed by the expression of NF200; data not shown), and beating cardiocytes, identified morphologically by rhythmical contraction of cells within the aggregate."}},
  "data": [
    {"molecule": "LIF: cytokine leukaemia inhibitory factor", "values": [
      {"measurement": "morphology and gene expression profile of ES cell aggregates", "setting": "ES cells [1]", "value": "did not duplicate the morphology or gene expression profile of EBM"}
    ]},
    {"molecule": "CN[C@@H]1C[C@H]2O[C@@](C)([C@@H]1OC)n1c3ccccc3c3c4c(c5c6ccccc6n2c5c31)C(=O)NC4", "note": "[staurosporine]", "values": [
      {"measurement": "Sox10 expression by in situ hybridisation", "setting": "EBM^9 explants; 25 nM, 48 hours culture", "value": "observed in all cells"},
      {"measurement": "morphology of EBM explants", "setting": "EBM^9 explants; 25 nM, within three hours of seeding", "value": "surrounded by a halo of differentiating cells"},
      {"measurement": "concentration required for uniform differentiation", "setting": "EBM^9 explants; data not shown", "value": "greater than 10 nM"}
    ]},
    {"molecule": "B1", "values": [
      {"measurement": "influence on the outcome of differentiation", "setting": "ES cells [2]", "value": "did not influence the outcome of differentiation"}
    ]}
  ]
}
